The structures appear in SMILES notation. Counter-ions that a name gives are not always drawn.

Experimental findings from ChEMBL document CHEMBL2073797, “Characterization of an organic anion-transporting polypeptide (OATP-B) in human placenta” (J Clin Endocrinol Metab, 2002) are described below.

This data set addresses T1, Solute carrier organic anion transporter family member 2B1 (OATP2B1) (Homo sapiens, UniProt O94956).
T1 sequence (O94956 whole entry): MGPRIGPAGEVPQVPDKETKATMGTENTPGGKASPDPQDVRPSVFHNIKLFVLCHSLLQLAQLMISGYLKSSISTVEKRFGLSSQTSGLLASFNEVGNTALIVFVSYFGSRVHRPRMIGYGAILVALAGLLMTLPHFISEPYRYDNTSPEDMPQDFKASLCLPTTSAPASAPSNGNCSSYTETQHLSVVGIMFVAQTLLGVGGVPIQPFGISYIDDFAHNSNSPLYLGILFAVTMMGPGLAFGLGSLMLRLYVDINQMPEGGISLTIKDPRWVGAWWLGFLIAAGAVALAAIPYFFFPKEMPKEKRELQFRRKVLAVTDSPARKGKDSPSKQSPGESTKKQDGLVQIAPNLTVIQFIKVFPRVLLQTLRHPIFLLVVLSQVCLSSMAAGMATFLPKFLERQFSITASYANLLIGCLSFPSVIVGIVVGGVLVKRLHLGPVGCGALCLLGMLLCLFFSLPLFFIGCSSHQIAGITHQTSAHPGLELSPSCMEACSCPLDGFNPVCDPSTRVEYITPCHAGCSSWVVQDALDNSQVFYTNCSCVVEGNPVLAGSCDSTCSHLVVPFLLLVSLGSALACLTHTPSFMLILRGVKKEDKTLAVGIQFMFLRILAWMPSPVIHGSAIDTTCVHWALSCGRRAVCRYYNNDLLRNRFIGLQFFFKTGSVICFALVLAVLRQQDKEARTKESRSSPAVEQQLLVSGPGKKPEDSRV
The experiment in a line: TP_TRANSPORTER: inhibition of Estrone-3-sulfate uptake (Estrone-3-sulfate: 1 uM, Pregnenolone sulfate: 100 uM) in Xenopus laevis oocytes. It counts as functional, cell-based, Oocyte. The conditions noted are these: Xenopus laevis oocytes expressing OATP2B1 (SLCO2B1), probe Estrone-3-sulfate (1 uM).

Regarding `CC(=O)[C@H]1CC[C@H]2[C@@H]3CC=C4C[C@@H](OS(=O)(=O)O)CC[C@]4(C)[C@H]3CC[C@]12C` [PREGNENOLONE SULFATE], testing at 100 µM gave an inhibition of 83%.
